Laboratory results reported in patent publication US5493007A, “Platelet aggregation inhibitors having high specificity for GPIIBIIIA” (Genentech, Inc., priority 1994, dated 1996).
“And” between values parts separate entries of the source, which are not always exact repeats. Identical values can stand only once. Like-named read-outs stand apart in the source and are kept apart here. Where a SMILES comes first, the peptide text is derived from it. Bridges are numbered along the chain shown (N, C = ends). [ ]: non-standard residue; d: D form. The star is where a group is joined. Orn = NCCC[C@H](N)C(=O)O; NH(CH2)3NH2 = NCCCN*; Ava = NCCCCC(=O)O

What was measured:
[1] = biological target: human platelet rich plasma (PRP) (Homo sapiens, UniProt P05106+P08514); assay: In Vitro Human Platelet Aggregation Assay; assay type: cell-based; settings: for platelet aggregation inhibition potency, result in words: human platelet aggregation in vitro
human platelet rich plasma (PRP), sequence (P08514 32-1039): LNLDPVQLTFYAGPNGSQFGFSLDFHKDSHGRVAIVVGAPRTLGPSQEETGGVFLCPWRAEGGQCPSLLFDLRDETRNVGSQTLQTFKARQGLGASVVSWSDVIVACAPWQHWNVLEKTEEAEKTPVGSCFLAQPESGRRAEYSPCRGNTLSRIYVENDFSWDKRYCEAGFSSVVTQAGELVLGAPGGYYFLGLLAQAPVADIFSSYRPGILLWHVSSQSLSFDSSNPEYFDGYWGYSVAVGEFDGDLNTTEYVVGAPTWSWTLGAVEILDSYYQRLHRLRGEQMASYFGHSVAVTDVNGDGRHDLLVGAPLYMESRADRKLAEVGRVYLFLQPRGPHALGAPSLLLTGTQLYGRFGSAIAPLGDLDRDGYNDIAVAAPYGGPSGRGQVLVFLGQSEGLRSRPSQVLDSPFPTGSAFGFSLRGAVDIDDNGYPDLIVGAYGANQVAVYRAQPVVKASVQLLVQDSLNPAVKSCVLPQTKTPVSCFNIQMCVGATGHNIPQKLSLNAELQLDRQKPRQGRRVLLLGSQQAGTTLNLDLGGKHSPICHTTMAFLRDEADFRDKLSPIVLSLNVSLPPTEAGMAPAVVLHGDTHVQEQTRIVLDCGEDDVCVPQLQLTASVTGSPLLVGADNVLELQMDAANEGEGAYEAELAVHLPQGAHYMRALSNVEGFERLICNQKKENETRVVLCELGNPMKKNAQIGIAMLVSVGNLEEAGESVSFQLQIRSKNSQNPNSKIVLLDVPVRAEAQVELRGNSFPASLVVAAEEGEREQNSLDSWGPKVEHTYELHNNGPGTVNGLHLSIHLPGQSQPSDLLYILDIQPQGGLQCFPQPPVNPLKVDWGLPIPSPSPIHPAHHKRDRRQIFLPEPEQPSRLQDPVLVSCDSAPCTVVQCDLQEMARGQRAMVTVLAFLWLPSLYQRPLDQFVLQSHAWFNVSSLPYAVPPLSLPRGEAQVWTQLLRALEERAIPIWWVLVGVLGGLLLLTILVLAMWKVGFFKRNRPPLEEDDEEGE
human platelet rich plasma (PRP), sequence (P05106 27-788): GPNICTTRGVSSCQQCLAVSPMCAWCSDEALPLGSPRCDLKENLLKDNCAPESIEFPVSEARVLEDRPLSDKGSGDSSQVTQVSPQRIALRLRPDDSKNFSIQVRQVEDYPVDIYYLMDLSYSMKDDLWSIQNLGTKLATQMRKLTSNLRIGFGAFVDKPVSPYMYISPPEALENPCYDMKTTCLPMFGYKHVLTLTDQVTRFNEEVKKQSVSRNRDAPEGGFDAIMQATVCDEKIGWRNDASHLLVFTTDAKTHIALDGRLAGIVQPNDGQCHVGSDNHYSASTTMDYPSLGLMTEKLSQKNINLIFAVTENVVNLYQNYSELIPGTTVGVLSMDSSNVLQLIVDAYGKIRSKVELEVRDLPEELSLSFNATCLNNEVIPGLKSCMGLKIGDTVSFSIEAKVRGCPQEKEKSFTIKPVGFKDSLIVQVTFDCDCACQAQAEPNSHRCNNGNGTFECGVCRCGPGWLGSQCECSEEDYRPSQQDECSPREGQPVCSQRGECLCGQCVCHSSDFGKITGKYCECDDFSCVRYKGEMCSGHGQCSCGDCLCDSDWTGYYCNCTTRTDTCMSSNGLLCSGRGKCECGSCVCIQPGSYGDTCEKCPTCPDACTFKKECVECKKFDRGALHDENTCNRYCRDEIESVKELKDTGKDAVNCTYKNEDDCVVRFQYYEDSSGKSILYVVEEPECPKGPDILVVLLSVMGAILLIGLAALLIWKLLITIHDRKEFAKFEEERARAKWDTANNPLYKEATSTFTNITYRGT
Protocol: Platelet aggregation assays are performed in human platelet rich plasma (PRP). Fifty milliliters of whole human blood (9 parts) is drawn on 3.6% sodium citrate (1 part) from a donor who has not taken aspirin or related medications for at least two weeks. The blood is centrifuged at 160×g for 10 minutes at 22° C. and allowed to stand for 5 minutes after which the PRP is decanted. Platelet poor plasma (PPP) is isolated from the remaining blood after centrifugation at 2000×g for 25 minutes. The platelet count of the PRP is diluted to about 300,000 platelets per microliter with PPP.
A 225 μl aliquot of PRP plus 25 μl of either a dilution of the test inhibitor sample or a control (PBS) is incubated for 5 minutes in a Chrono-log Whole Blood Aggregometer at 25° C. An aggregating agent (collagen, 1 μg/ml; U46619, 100 ng/ml; or ADP, 17 μM) is added and the transmission is recorded.

GP IIb IIIa = GP IIb IIIa (Homo sapiens, UniProt P05106+P08514); assay: GP IIb IIIa -von Willebrand factor (vWF) ELISA Assay; assay type: binding; design: GP IIb IIIa, prepared by the method of Fitzgerald et al; from tissue
GP IIb IIIa, sequence (P08514 32-887 limits assumed): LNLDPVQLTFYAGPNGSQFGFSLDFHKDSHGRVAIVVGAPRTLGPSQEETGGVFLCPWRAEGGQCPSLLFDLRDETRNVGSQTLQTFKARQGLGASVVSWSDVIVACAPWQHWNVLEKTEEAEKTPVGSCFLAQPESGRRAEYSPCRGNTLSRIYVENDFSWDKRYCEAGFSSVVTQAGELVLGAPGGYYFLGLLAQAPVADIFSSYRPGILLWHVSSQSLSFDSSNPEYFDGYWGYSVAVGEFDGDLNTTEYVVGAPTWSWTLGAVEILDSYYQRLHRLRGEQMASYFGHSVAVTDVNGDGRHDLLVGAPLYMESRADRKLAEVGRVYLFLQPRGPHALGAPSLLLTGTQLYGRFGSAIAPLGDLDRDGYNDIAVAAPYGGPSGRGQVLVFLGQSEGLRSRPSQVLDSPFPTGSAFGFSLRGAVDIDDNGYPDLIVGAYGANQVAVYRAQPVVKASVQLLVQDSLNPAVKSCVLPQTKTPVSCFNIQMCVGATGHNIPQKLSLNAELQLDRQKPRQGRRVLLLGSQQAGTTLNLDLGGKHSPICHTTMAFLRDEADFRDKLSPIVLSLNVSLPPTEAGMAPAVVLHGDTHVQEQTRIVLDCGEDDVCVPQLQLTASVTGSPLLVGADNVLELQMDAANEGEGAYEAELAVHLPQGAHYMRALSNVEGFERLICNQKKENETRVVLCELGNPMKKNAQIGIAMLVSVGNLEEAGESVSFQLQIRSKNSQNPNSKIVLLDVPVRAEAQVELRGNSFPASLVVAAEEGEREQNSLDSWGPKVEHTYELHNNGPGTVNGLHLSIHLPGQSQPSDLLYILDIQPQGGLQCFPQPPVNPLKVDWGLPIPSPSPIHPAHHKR
GP IIb IIIa, sequence (P08514 891-1039 partner limits assumed): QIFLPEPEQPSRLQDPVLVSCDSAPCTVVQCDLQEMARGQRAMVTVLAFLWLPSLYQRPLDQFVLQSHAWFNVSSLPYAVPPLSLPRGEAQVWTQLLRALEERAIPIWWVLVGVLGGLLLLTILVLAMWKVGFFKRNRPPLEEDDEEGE
GP IIb IIIa, sequence (P05106 27-788): as the sequence (P05106 27-788) above
Protocol: Microtiter plates are coated with 1.0 μg/ml GP IIb IIIa, prepared by the method of Fitzgerald et al., (Anal. Biochem. 151:169-177 [1985]) and allowed to incubate overnight in coat buffer. The plates are then washed three times in wash buffer (0.05% Tween 20 in PBS) and 150 μl of assay buffer is added and allowed to incubate for 1-2 hours at room temperature on plate shaker. The plates are washed three times and 50 μl of 2x inhibitor in assay buffer (Assay buffer: 0.5% BSA/50 mM Tris, 100 mM NaCl, 1.0 mM CaCl2, 1.0mM MgCl2, 1.0 mM MnCl2; coat buffer is the same but without BSA) is added. Fifty μl of 4.0 μg/ml vWF (prepared as described by Ledford et al., Thrombosis and Haemostasis, 64(4): 569-575 [1990]) in assay buffer is then added and allowed to incubate for one hour at room temperature on plate-shaker. The plates are washed three times and the antibody mixture is added (1:5000 of mouse anti-vWF and 1:5000 of rabbit-anti-mouse-Fc-HRP, both commercially available) in assay buffer and incubated for 1 hour at room temperature on plate-shaker. Plates are again washed three times and 100 μl of substrate solution (10 mg OPD, 6.5 μl H2 O2, 15 ml phosphate citrate buffer) is added and incubated at room temperature. The color change of OPD/H2 O2 reagent is read at 492 nm with a 405 nm reference wavelength on the filter photometer.

[2] = biological target: T1, Vitronectin Receptor (αvβ3) (Homo sapiens, UniProt P05106+P06756); assay: Human Vitronectin-Vitronectin Receptor (αvβ3) ELISA Assay; assay type: binding; settings: purified human αvβ3, vitronectin-coated plates; read-out: ELISA IC50 Vitronectin VnR
T1 construct: Human vitronection receptor (VnR) is purified from human placenta; from tissue; host or cells: human placenta
T1 sequence (P06756 31-889 limits assumed): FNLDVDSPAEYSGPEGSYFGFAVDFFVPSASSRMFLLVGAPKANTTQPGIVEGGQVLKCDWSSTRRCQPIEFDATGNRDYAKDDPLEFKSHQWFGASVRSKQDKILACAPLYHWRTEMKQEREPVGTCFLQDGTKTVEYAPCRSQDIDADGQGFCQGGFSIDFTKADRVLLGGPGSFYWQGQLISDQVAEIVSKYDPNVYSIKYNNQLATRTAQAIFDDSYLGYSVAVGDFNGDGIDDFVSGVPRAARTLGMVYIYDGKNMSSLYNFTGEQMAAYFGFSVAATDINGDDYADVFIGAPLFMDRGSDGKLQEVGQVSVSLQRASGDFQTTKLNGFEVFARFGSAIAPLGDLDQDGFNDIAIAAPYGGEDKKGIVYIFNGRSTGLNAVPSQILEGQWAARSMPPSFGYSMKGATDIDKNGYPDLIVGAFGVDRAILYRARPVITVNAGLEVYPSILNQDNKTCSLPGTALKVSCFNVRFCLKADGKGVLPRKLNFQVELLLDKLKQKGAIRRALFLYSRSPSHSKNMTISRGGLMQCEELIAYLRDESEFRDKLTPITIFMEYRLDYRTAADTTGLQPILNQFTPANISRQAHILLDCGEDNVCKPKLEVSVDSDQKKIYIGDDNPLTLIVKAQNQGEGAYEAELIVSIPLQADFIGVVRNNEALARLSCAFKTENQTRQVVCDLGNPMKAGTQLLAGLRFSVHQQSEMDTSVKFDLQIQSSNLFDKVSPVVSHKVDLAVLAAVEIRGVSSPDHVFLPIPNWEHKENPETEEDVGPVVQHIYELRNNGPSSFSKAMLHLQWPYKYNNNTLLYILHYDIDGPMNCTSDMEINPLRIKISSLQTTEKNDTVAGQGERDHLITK
T1 sequence (P06756 891-1048 partner limits assumed): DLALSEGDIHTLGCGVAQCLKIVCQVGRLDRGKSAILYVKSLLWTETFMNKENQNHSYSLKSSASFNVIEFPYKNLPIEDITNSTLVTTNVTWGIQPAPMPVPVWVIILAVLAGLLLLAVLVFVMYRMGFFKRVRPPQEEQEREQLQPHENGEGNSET
T1 sequence (P05106 27-788): as the sequence (P05106 27-788) above
Source text: Human vitronectin (Vn) is isolated from human plasma and purified by affinity chromatography by the method of Yatohgo et. al., (Cell Structure and Function 13:281-292 [1988]).
Human vitronection receptor (VnR) is purified from human placenta by the method of Pytela et al., (Methods Enzymol., 144:475 [1987]). Alternatively the αvβ3 receptor can be purified from some cell lines (e.g., human embryonic kidney 293 cells) transfected with DNA sequences for both the αv and β3 subunits. The subunits are purified by employing octylglucoside extraction followed by Con-A, Heparin-Sepharose, and S-300 Chromatography.
Anti-GP IIb IIIa monoclonal antibodies specific for human GP IIIa are prepared by the method of Newman et al. (Blood, 65:227-232 [1985]), or a similar procedure. This mouse Mab is specific for the β3 subunit of the vitronectin receptor.
Rabbit Fab 2 anti-mouse Fc fragment horse radish peroxidase conjugate (anti-MuFc HRP) is obtained from PelFreeze (cat. no. 715305-1).
Maxisorp microtiter plates are coated with 2 μg/ml human vitronectin dissolved in PBS ([…]) and stored overnight at 4° C. The plates are washed two times with PBS-0.05% Tween-20 (wash buffer) and blocked by incubating with about 150 μl/well of assay buffer (1%, BSA [RIA grade or better] in 50 mM Tris-HCl, 100 mM NaCl, 1 mM MgCl2, CaCl2, MnCl2 pH 7.4) for 60 minutes. Dilutions of standards are prepared and putative inhibitors (Table 3) are dissolved in assay buffer. The blocked plates are emptied and 25 μl/well of inhibitor or standard solution is added to each well. Twenty-five μl of a 30 μg/ml solution of purified αvβ3 in assay buffer is pipetted into the coated plate. The final concentration of receptor in the assay well is about 15 μg/ml. The plate is incubated on a shaker for 60 minutes. Meanwhile, for each microtite plate, 6 ml buffer solution containing 1.5 μg/ml of mouse monoclonal antibody specific for β3 is prepared. To this solution is added μl of the secondary antibody, which is anti-mouse-Fc-HRP antibody conjugate. For example, for one plate, prepare 6 ml of a 1.5 μg/ml mouse Mab solution to which is added 1 μl of anti-mouse-Fc-HRP antibody stock, (this represents a 1:6000 dilution of the antibody - HRP conjugate). This mixture is allowed to incubate during the receptor-inhibitor incubation. The assay plates are washed 4 times with PBS-Tween and 50 μl/well of the antibody mixture is then pipetted into the plate for a 60 minute incubation. The plate is washed 4 times and the color reaction is developed with 50 μl/well of 0.67 mg/ml o-phenyldiamine in PBS containing 0.012% H2 O2. Alternatively, 16 mM citric acid, 50 mM Na2 PO4 at pH 5.0 can be used as a substrate buffer. The reaction is stopped with 50 μl/well 1M H2 SO4. The plates are read at 492-405 nm and the data analyzed by four-parameter fit.

[3] = human PRP, read-out: Human Platelet Aggregation IC50
[4] = GP IIb IIIa-coated plates, vWF, read-out: ELISA IC50 GPIIb IIIa vWF

| SMILES | IC50 [1, 3] | IC50 (GP IIb IIIa; [4]) | IC50 [2] | platelet aggregation inhibition potency, result in words [1] | IC50 (GP IIb IIIa; unit inferred, read-out: IC50 in the GPIIb IIIa -vWF ELISA) | IC50 ([1]; read-out: platelet aggregation inhibition IC50) |
| --- | --- | --- | --- | --- | --- | --- |
| N=C(N)NCCC[C@@H]1NC(=O)[C@@H](Cc2ccc(O)cc2)NC(=O)CSC[C@@H](C(=O)N[C@@H](CCCCN)C(N)=O)NC(=O)[C@H](CC(=O)O)NC(=O)CNC1=O [7/3, cyclo-S-acetyl-dTyr--Arg--Gly--Asp--Cys--Lys--NH2] ({CH2CO}-[dY]RGDCK-NH2; thioether N-5) | 320 nM | 15.9 nM | 60 nM |  |  |  |
| N=C(N)NCCC[C@H](NC(=O)[C@H](Cc1ccc(O)cc1)NC(=O)[C@@H]1CSCC(=O)N[C@H](Cc2ccc(O)cc2)C(=O)N[C@@H](CCCNC(=N)N)C(=O)NCC(=O)N[C@@H](CC(=O)O)C(=O)N1)C(N)=O [7/7, cyclo-S-acetyl-dTyr--Arg--Gly--Asp--Cys--Tyr--Arg--NH2] ({CH2CO}-[dY]RGDCYR-NH2; thioether N-5) |  |  | 51 nM |  |  |  |
| N=C(N)NCCC[C@@H]1NC(=O)[C@@H](Cc2ccc(O)cc2)NC(=O)CSC[C@@H](C(=O)NCCCN)NC(=O)[C@H](CC(=O)O)NC(=O)CNC1=O [8/22, cyclo-S-acetyl-dTyr--Arg--Gly--Asp--Cys--NH--X (X = propyl amine)] ({CH2CO}-[dY]RGDC-{NH(CH2)3NH2}; thioether N-5) | 387 nM | 4.73 nM | 36 nM |  |  |  |
| N=C(N)NCCC[C@@H]1NC(=O)[C@@H](Cc2ccc(O)cc2)NC(=O)CSC[C@@H](C(=O)N[C@@H](CCC(N)=O)C(N)=O)NC(=O)[C@H](CC(=O)O)NC(=O)CNC1=O [7/27, cyclo-S-acetyl-dTyr--Arg--Gly--Asp--Cys--Gln--NH2] ({CH2CO}-[dY]RGDCQ-NH2; thioether N-5) | 1760 nM |  | 49 nM | did not significantly improve potency |  |  |
| N=C(N)NCCC[C@H](NC(=O)[C@@H]1CSCC(=O)N[C@H](Cc2ccc(O)cc2)C(=O)N[C@@H](CCCNC(=N)N)C(=O)NCC(=O)N[C@@H](CC(=O)O)C(=O)N1)C(N)=O [7/1, cyclo-S-acetyl-dTyr--Arg--Gly--Asp--Cys--Arg--NH2] ({CH2CO}-[dY]RGDCR-NH2; thioether N-5) | 80 nM and 83 nM |  | 49 nM | equipotent | 13.8 nM |  |
| N=C(N)NCCC[C@@H]1NC(=O)[C@@H](Cc2ccc(O)cc2)NC(=O)CSC[C@@H](C(=O)O)NC(=O)[C@H](CC(=O)O)NC(=O)CNC1=O [7/46, cyclo-S-acetyl-dTyr--Arg--Gly--Asp--Cys--OH] ({CH2CO}-[dY]RGDC-OH; thioether N-5) | 150 nM | 0.18 nM | 5 nM |  |  |  |
| N=C(N)NCCC[C@@H]1NC(=O)[C@@H](Cc2ccc(O)cc2)NC(=O)CSC[C@@H](C(=O)NCCCCC(=O)O)NC(=O)[C@H](CC(=O)O)NC(=O)CNC1=O [7/28, cyclo-S-(1-5)-dTyr--Arg--Gly--Asp--Cys--X (X = aminovaleric acid)] ({CH2CO}-[dY]RGDC[Ava]-OH; thioether N-5) |  |  | 650 nM |  |  | 52200 nM |
| N=C(N)NCCC[C@@H]1NC(=O)[C@@H](Cc2ccc(O)cc2)NC(=O)CSC[C@@H](C(=O)N[C@H](CCCCN)C(N)=O)NC(=O)[C@H](CC(=O)O)NC(=O)CNC1=O [7/4, cyclo-S-acetyl-dTyr--Arg--Gly--Asp--Cys--dLys--NH2] ({CH2CO}-[dY]RGDC[dK]-NH2; thioether N-5) |  | 1.56 nM | 17 nM |  |  |  |
| N=C(N)NCCC[C@@H]1NC(=O)[C@@H](Cc2ccc(O)cc2)NC(=O)CSC[C@@H](C(=O)N[C@H](CCCNC(=N)N)C(N)=O)NC(=O)[C@H](CC(=O)O)NC(=O)CNC1=O [7/2, cyclo-S-acetyl-dTyr--Arg--Gly--Asp--Cys--dArg--NH2] ({CH2CO}-[dY]RGDC[dR]-NH2; thioether N-5) |  | 2.93 nM | 22 nM |  |  |  |
| N=C(N)NCCC[C@@H]1NC(=O)[C@@H](Cc2ccc(O)cc2)NC(=O)CSC[C@@H](C(=O)N[C@@H](CCCN)C(N)=O)NC(=O)[C@H](CC(=O)O)NC(=O)CNC1=O [7/5, cyclo-S-acetyl-dTyr--Arg--Gly--Asp--Cys--Orn--NH2] ({CH2CO}-[dY]RGDC[Orn]-NH2; thioether N-5) |  | 6.84 nM | 45 nM |  |  |  |
